According to US10508109B2 (priority 2015, dated 2019):
Where a name gives a salt, the structure may show the parent alone. Read-outs that look alike come from different tables or passages of the source.

Tests used:
SUV39H2 = SUV39H2 (Homo sapiens (Human), UniProt Q9H5I1); settings: read-out: IC50 (μM) Suv 39H2 assay
CCD-18Co = assay: Cell-based assay, anti-proliferative activity (Cell Counting Kit-8, 72 hours); settings: Homo sapiens, read-out: IC50 (μM) CCD-18Co
In short: (§1)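 Cells seeded at 2,000–3,000 per well and exposed 72 h to compound at 0–100 micro-M (2-fold series). Growth measured with CCK-8; IC50 taken as anti-proliferative indicator.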

HFL1 = assay: as above; settings: Homo sapiens, read-out: IC50 (μM) HFL1
In short: as §1

HCT-116 = assay: as above; settings: Homo sapiens, read-out: IC50 (μM) HCT-116
In short: as §1

PC14 = assay: as above; settings: Homo sapiens, read-out: IC50 (μM) PC14
In short: as §1

A549 = assay: as above; settings: Homo sapiens, read-out: IC50 (μM) A549
In short: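 IC50 values come from growth read-outs taken after the cells' exposure to each candidate inhibitor. Cells had been plated in 96-well microtiter plates beforehand.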

[1] = CCD-18Co cells, 72 hours, Cell Counting Kit-8
[2] = HFL1 cells, 72 hours, Cell Counting Kit-8
[3] = HCT-116 cells, 72 hours, Cell Counting Kit-8
[4] = PC-14, PC14 cells, 72 hours, Cell Counting Kit-8
[5] = A549 cells, 72 hours, Cell Counting Kit-8

Chain of SUV39H2 (Q9H5I1 whole entry): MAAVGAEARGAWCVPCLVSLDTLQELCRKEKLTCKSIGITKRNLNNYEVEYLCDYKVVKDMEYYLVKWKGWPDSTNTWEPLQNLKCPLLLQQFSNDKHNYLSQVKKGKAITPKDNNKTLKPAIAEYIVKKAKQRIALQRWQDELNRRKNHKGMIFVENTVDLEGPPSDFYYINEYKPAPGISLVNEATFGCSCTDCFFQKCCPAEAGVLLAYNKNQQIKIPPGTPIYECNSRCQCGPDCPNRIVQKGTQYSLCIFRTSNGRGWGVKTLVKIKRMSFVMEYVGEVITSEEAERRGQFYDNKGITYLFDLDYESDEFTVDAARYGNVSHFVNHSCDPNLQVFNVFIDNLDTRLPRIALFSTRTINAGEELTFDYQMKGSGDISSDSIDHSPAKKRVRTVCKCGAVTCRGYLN

SMILES	IC50 (SUV39H2; enzyme assay) [µM]	IC50 (CCD-18Co; [1]) [µM]	IC50 (HFL1; [2]) [µM]	IC50 (HCT-116; [3]) [µM]	IC50 (PC14; [4]) [µM]	IC50 (A549; [5]) [µM]	IC50 (CCD-18Co; CCD-18Co, 72 h) [µM]	IC50 (HFL1; HFL1, 72 h) [µM]	IC50 (HCT-116; HCT-116, 72 h) [µM]	IC50 (PC14; PC-14, 72 h) [µM]	IC50 (A549; A549, 72 h) [µM]	IC50 (SUV39H2) [µM]
CCOP(=O)(CCN1CCN(c2ccn3cc(-c4cc(Cl)c(OC)cc4OCCCN(C)C)nc3c2)CC1)OCC [Example 219, diethyl (2-(4-(2-(5-chloro-2-(3-(dimethylamino)propoxy)-4-methoxyphenyl)-imidazo[1,2-a]pyridin-7-yl)piperazin-1-yl)ethyl)phosphonate]	0.0201	10	7.4	10	7.6	10	–	–	–	–	–	–
COc1cc(OC)c(-c2cn3cc(Br)c(N4CCNCC4)nc3n2)cc1Cl [Example 220, 6-bromo-2-(5-chloro-2,4-dimethoxyphenyl)-7-(piperazin-1-yl)imidazo[1,2-a]pyrimidine]	0.0262	3.1	3.1	2.4	2.4	2.6	–	–	–	–	–	–
COc1cc(OC)c(-c2cn3cc(NCCN)c(N4CCN(C(=O)OC(C)(C)C)CC4)nc3n2)cc1Cl [Example 221, tert-butyl 4-(6-((2-aminoethyl)amino)-2-(5-chloro-2,4-dimethoxyphenyl)imidazo[1,2-a]pyrimidin-7-yl)piperazine-1-carboxylate]	0.0118	5.6	4.9	5.4	9.5	10	–	–	–	–	–	–
COc1cc(OC)c(-c2cn3cc(NCCN)c(N4CCN(S(=O)(=O)C5CC5)CC4)nc3n2)cc1Cl [Example 222, N^1-(2-(5-chloro-2,4-dimethoxyphenyl)-7-(4-(cyclopropylsulfonyl)-piperazin-1-yl)imidazo[1,2-a]pyrimidin-6-yl)ethane-1,2-diamine]	0.00597	10	10	10	10	10	–	–	–	–	–	–
COc1cc(OC)c(-c2cn3cc(NCCN)c(N4CCNCC4)nc3n2)cc1Cl [Example 223, N^1-(2-(5-chloro-2,4-dimethoxy-phenyl)-7-(piperazin-1-yl)imidazo[1,2-a]pyrimidin-6-yl)ethane-1,2-diamine]	0.00866	10	10	10	10	10	–	–	–	–	–	–
COc1cc(OC)c(-c2cn3cc(NCCNC(C)=O)c(N4CCOCC4)cc3n2)cc1Cl [Example 224, N-(2-((2-(5-chloro-2,4-dimethoxyphenyl)-7-morpholinoimidazo[1,2-a]-pyridin-6-yl)amino)ethyl)acetamide]	0.0337	–	–	–	–	–	10	10	10	10	10	–
COc1cc(OC)c(-c2cn3cc(NCCN)c(N4CCN(S(=O)(=O)C5CC5)CC4)cc3n2)cc1Cl [Example 225, N^1-(2-(5-chloro-2,4-dimethoxyphenyl)-7-(4-(cyclopropylsulfonyl)-piperazin-1-yl)imidazo[1,2-a]pyridin-6-yl)ethane-1,2-diamine]	0.0022	7.3	7.3	9.6	6.9	10	–	–	–	–	–	–
COc1cc(OCCCN(C)C)c(-c2cn3ccc(N4CCN(S(=O)(=O)C(C)C)CC4)nc3n2)cc1Cl [Example 226, 3-(4-chloro-2-(7-(4-(isopropylsulfonyl)piperazin-1-yl)imidazo[1,2-a]-pyrimidin-2-yl)-5-methoxyphenoxy)-N,N-dimethylpropan-1-amine]	0.0655	10	8.9	7.8	5.5	10	–	–	–	–	–	–
COc1cc(OCCCN(C)C)c(-c2cn3ccc(N4CCN(S(=O)(=O)C5CCCC5)CC4)nc3n2)cc1Cl [Example 227, 3-(4-chloro-2-(7-(4-(cyclopentylsulfonyl)piperazin-1-yl)imidazo[1,2-a]-pyrimidin-2-yl)-5-methoxyphenoxy)-N,N-dimethylpropan-1-amine]	0.0382	6.2	5.7	5.2	5.4	7	–	–	–	–	–	–
COc1cc(C)c(Cl)cc1-c1cn2ccc(N3CCNCC3)cc2n1 [Example 228, 2-(5-chloro-2-methoxy-4-methylphenyl)-7-(piperazin-1-yl)imidazo[1,2-a]pyridine hydrochloride]	–	–	–	–	–	–	2.6	1.6	2	2.3	2.8	0.033
COc1cc(C)c(Cl)cc1-c1cn2ccc(N3CCN(S(=O)(=O)C4CC4)CC3)cc2n1 [Example 229, 2-(5-chloro-2-methoxy-4-methylphenyl)-7-(4-(cyclopropylsulfonyl)-piperazin-1-yl)imidazo[1,2-a]pyridine]	0.0775	3.8	2.3	2.1	0.8	1.9	–	–	–	–	–	–
COc1cc(C)c(Cl)cc1-c1cn2ccc(N3CCOCC3)cc2n1 [Example 230, 4-(2-(5-chloro-2-methoxy-4-methylphenyl)imidazo[1,2-a]pyridin-7-yl)morpholine]	0.0183	3.5	2.8	4	1.6	4.4	–	–	–	–	–	–
COc1cc(OC)c(-c2cn3ccc(N4CCC(O)CC4)cc3n2)cc1Cl [Example 231, 1-(2-(5-chloro-2,4-dimethoxyphenyl)imidazo[1,2-a]pyridine-7-yl)piperidin-4-ol]	0.00488	9.1	6.7	10	3.9	10	–	–	–	–	–	–
COc1cc(OC)c(-c2cn3ccc(N4CCN(C(=O)OC(C)(C)C)CC4)cc3n2)cc1Cl [Example 232, tert-butyl 4-[2-(5-chloro-2,4-dimethoxyphenyl)imidazo[1,2-a]pyridin-7-yl]piperazine-1-carboxylate]	0.0291	1.5	1.1	1.7	0.73	1.5	–	–	–	–	–	–
COc1cc(Cl)c(Cl)cc1-c1cn2ccc(N3CCCC3)cc2n1 [Example 233, 2-(4,5-dichloro-2-methoxyphenyl)-7-(pyrrolidin-1-yl)imidazo[1,2-a]-pyridine]	0.085	2.8	2.7	2.7	1.8	2.6	–	–	–	–	–	–
COc1cc(OCCN)c(-c2cn3ccc(N4CCN(S(=O)(=O)C5CC5)CC4)cc3n2)cc1Cl [Example 234, 2-(4-chloro-2-(7-(4-(cyclopropylsulfonyl)piperazin-1-yl)imidazo[1,2-a]-pyridin-2-yl)-5-methoxyphenoxy)ethanamine]	0.0418	6.1	6.2	5.3	6.4	10	–	–	–	–	–	–
COc1cc(OC)c(-c2cn3ccc(N4CCNC(CO)C4)cc3n2)cc1Cl (stereo not drawn) [Example 235, (4-(2-(5-chloro-2,4-dimethoxyphenyl)imidazo[1,2-a]pyridin-7-yl)-piperazin-2-yl)methanol]	0.0115	6.7	4.3	6.6	5.6	5.3	–	–	–	–	–	–
COc1cc(OC)c(-c2cn3ccc(N4CCN(S(=O)(=O)C5CC5)C(CO)C4)cc3n2)cc1Cl (stereo not drawn) [Example 236, (4-(2-(5-chloro-2,4-dimethoxyphenyl)imidazo[1,2-a]pyridin-7-yl)-1-(cyclopropylsulfonyl)piperazin-2-yl)methanol]	0.00655	4	4.1	4.4	3.3	4.8	–	–	–	–	–	–
COC(=O)CCCN1CCN(c2ccn3cc(-c4cc(Cl)c(OC)cc4OC)nc3c2)CC1 [Example 237, methyl 4-(4-(2-(5-chloro-2,4-dimethoxyphenyl)imidazo[1,2-a]pyridine-7-yl)piperazin-1-yl)butanoate]	0.0113	10	10	10	10	10	–	–	–	–	–	–
COc1cc(OC)c(-c2cn3ccc(N4CCN(C(=O)C5CC5)CC4)cc3n2)cc1Cl [Example 238, (4-(2-(5-chloro-2,4-dimethoxyphenyl)imidazo[1,2-a]pyridine-7-yl)piperazin-1-yl)(cyclopropyl)methanone]	0.00416	3	2.4	2.9	1.6	2.5	–	–	–	–	–	–
COc1cc(OC)c(-c2cn3ccc(N4CCN(C5CCCC5)CC4)cc3n2)cc1Cl [Example 239, 2-(5-chloro-2,4-dimethoxyphenyl)-7-(4-cyclopentylpiperazin-1-yl)imidazo[1,2-a]pyridine]	0.021	2.1	1.7	1.5	1.8	1.5	–	–	–	–	–	–
COc1cc(OC)c(-c2cn3ccc(N4CCN(CCCC(=O)O)CC4)cc3n2)cc1Cl [Example 240, 4-(4-(2-(5-chloro-2,4-dimethoxyphenyl)imidazo[1,2-a]pyridine-7-yl)piperazin-1-yl)butanoic acid]	0.0063	10	10	10	10	10	–	–	–	–	–	–
